# In article PMC11969009 (Nature Communications, 2025):
# Values joined by “and” are separate entries in the source; they are usually repeats but may differ in a detail not shown here. Equal values may be shown once. Read-outs that look alike come from different tables or passages of the source.
# What was measured:
# SARS-CoV-2 P21 = test system: SARS-CoV-2 P21; set-up: species or system C57BL/6 (WT) mice; conditions: mouse, in vivo
# [1] = test system: SARS-CoV-2 clinical isolate VIC001; experiment: microbe, parasite or virus in culture; type: cell-based
# SARS-CoV-2 PLpro = SARS-CoV-2 PLpro (Severe acute respiratory syndrome coronavirus 2, UniProt P0DTD1); experiment: biochemical
# SARS-CoV PLpro = SARS-CoV PLpro (Severe acute respiratory syndrome coronavirus, UniProt P0C6X7); experiment: biochemical; set-up: inhibition of SARS-CoV PLpro, UbRh dose-response replicate value: unit: %
# MERS-CoV PLpro = MERS-CoV PLpro (Middle East respiratory syndrome-related coronavirus, UniProt K9N7C7); type: biochemical; set-up: unit: %
# HKU1 PLpro = HKU1 PLpro (Human coronavirus HKU1, UniProt P0C6X2); experiment: biochemical; type: biochemical; set-up: inhibition of HKU1 PLpro, UbRh dose-response replicate value: unit: %
# OC43 PLpro = OC43 PLpro (Human coronavirus OC43, UniProt P0C6X6); type: biochemical; set-up: unit not given here
# NL63 PL2pro = NL63 PL2pro (Human coronavirus NL63, UniProt P0C6X5); experiment: biochemical; set-up: inhibition of NL63 PL2pro, UbRh dose-response replicate value: unit: %
# 229E PL2pro = 229E PL2pro (Human coronavirus 229E, UniProt P0C6X1); experiment: biochemical; set-up: inhibition of 229E PL2pro, UbRh dose-response replicate value: unit: %
# USP21 = USP21 (Homo sapiens, UniProt Q9UK80); type: biochemical
structure (smiles),measurement,setting,value
CCO/N=C(/c1ccc2cc(OC)ccc2c1)[C@@H]1CCCN([C@H]2CC[C@@H](O)CC2)C1 [P8-100],Log2 Fold change IL-4,SARS-CoV-2 P21,-0.18
same,Log2 Fold change IL-9,SARS-CoV-2 P21,-6.78
CCO/N=C(/c1ccc2cc(OC)ccc2c1)[C@@H]1CCCN([C@H]2CC[C@@H](O)CC2)C1 [P8-150],Log2 Fold change IL-12p70,SARS-CoV-2 P21,-2.36
CO/N=C(/c1ccc2cc(OC)ccc2c1)[C@@H]1CCCN([C@H]2CC[C@@H](O)CC2)C1 [WEHI P4],Ext Data Fig 2f dose response (0 µM = 100),[1]; concentration 0.01 µM,109.2308 and 92.5900 and 114.0845 and 104.0541 and 89.7436
same,Ext Data Fig 2f dose response (0 µM = 100),[1]; concentration 0.02 µM,101.5385 and 95.0600 and 95.7746 and 97.2973 and 106.4103
same,Ext Data Fig 2f dose response (0 µM = 100),[1]; concentration 0.04 µM,107.6923 and 74.0700 and 95.7746 and 91.8919 and 82.0513
same,Ext Data Fig 2f dose response (0 µM = 100),[1]; concentration 0.08 µM,93.8462 and 80.2500 and 109.8592 and 101.3514 and 93.5897
same,Ext Data Fig 2f dose response (0 µM = 100),[1]; concentration 5 µM,0.0000
CO/N=C(/c1ccc2cc(OC)ccc2c1)[C@@H]1CCCN([C@H]2CC[C@@H](c3cc[nH]n3)CC2)C1 [WEHI-P70],inhibition at 0.545 µM,"SARS-CoV-2 PLpro; Conc 0.545 µM, read-out: SARS-CoV-2 PLpro, UbRh dose-response",87.3%
same,inhibition at 1.63 µM,"SARS-CoV-2 PLpro; Conc 1.63 µM, read-out: SARS-CoV-2 PLpro, UbRh dose-response",96.4%
same,inhibition at 4.9 µM,"SARS-CoV-2 PLpro; Conc 4.9 µM, read-out: SARS-CoV-2 PLpro, UbRh dose-response",102%
same,IC50,SARS-CoV-2 PLpro; IC50 (UbRh) SARS-CoV-2 PLpro,98 nM
same,inhibition at […],"SARS-CoV-2 PLpro; read-out: SARS-CoV-2 PLpro, UbRh dose-response",65.3% and 28.1%
same,IC50,SARS-CoV PLpro,94 nM
same,"inhibition of SARS-CoV PLpro, UbRh dose-response replicate value",SARS-CoV PLpro,98.7016 and 99.911 and 99.674 and 98.9699 and 100.405 and 100.228
same,"SARS-CoV PLpro, UbRh hCoV Pan Activity dose-response",SARS-CoV PLpro; Conc 0.0149 µM,11.412 and 10.2397 and 10.016 and 11.8574
same,"SARS-CoV PLpro, UbRh hCoV Pan Activity dose-response",SARS-CoV PLpro; Conc 0.0448 µM,31.6247 and 32.2323 and 27.9576 and 29.7371
same,"SARS-CoV PLpro, UbRh hCoV Pan Activity dose-response",SARS-CoV PLpro; Conc 3.63 µM,97.8161 and 97.4695 and 97.9055 and 98.3366
same,"inhibition of SARS-CoV PLpro, UbRh dose-response replicate value",SARS-CoV PLpro; Conc 98 µM,99.4348 and 99.7657 and 100.125
same,inhibition at 98 µM,"SARS-CoV PLpro; Conc 98 µM, read-out: inhibition of SARS-CoV PLpro, UbRh dose-response replicate value",98.6%
same,inhibition at […],"SARS-CoV PLpro; read-out: inhibition of SARS-CoV PLpro, UbRh dose-response replicate value",99.4%
same,"inhibition of MERS-CoV PLpro, UbRh dose-response replicate value",MERS-CoV PLpro,-8.262 and -6.812 and -8.29 and -8.637 and -10.7207 and -11.1211 and -8.564 and -8.857
same,"inhibition of MERS-CoV PLpro, UbRh dose-response replicate value",MERS-CoV PLpro; Conc 98 µM,-10.7242 and -11.7377 and -6.2046 and -4.979
same,"inhibition of HKU1 PLpro, UbRh dose-response replicate value",HKU1 PLpro,-6.039 and -6.635 and 8.689 and -11.8697 and -9.542 and -8.165 and -7.3684 and -16.402
same,"inhibition of HKU1 PLpro, UbRh dose-response replicate value",HKU1 PLpro; Conc 98 µM,-3.115 and -4.878 and -6.077 and -8.873
same,"inhibition of OC43 PLpro, UbRh dose-response replicate value",OC43 PLpro,-10.4521 and -4.6612 and -0.2116 and -6.41 and -12.4786 and -1.279 and -4.6859
same,"inhibition of OC43 PLpro, UbRh dose-response replicate value",OC43 PLpro; Conc 98 µM,-8.82 and -6.432 and -0.556 and -3.797
same,IC50,NL63 PL2pro,648 nM
same,"inhibition of NL63 PL2pro, UbRh dose-response replicate value",NL63 PL2pro,96.5311 and 98.0786 and 97.1472 and 94.6147 and 95.7019 and 95.1407
same,"NL63 PL2pro, UbRh hCoV Pan Activity dose-response",NL63 PL2pro; Conc 3.63 µM,86.4411 and 86.623 and 87.2454 and 84.6973
same,"inhibition of NL63 PL2pro, UbRh dose-response replicate value",NL63 PL2pro; Conc 98 µM,98.2213 and 99.4112 and 98.0123
same,inhibition at 98 µM,"NL63 PL2pro; Conc 98 µM, read-out: inhibition of NL63 PL2pro, UbRh dose-response replicate value",98.4%
same,inhibition at […],"NL63 PL2pro; read-out: inhibition of NL63 PL2pro, UbRh dose-response replicate value",97.7% and 95.1%
same,IC50,229E PL2pro,26000 nM
same,"inhibition of 229E PL2pro, UbRh dose-response replicate value",229E PL2pro,46.2136 and 48.684 and 48.4508 and 18.0648 and 22.1853 and 20.9697
same,"inhibition of 229E PL2pro, UbRh dose-response replicate value",229E PL2pro; Conc 98 µM,70.621 and 72.3972 and 73.3316
same,inhibition at […],"229E PL2pro; read-out: inhibition of 229E PL2pro, UbRh dose-response replicate value",44.4% and 18.9%
same,inhibition at 98 µM,"229E PL2pro; read-out: inhibition of 229E PL2pro, UbRh dose-response replicate value, Conc 98 µM",71.9%
same,selectivity over USP21,USP21,selective over USP21
